Measurements: ChEMBL document CHEMBL1201862, “PubChem BioAssay data set” (2004)
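48-hour exposure; five concentrations; linearly interpolated endpoints. Here, GI50 denotes the concentration required for 50% inhibition of growth.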 The source made the active and inactive calls. No stated cut-off is given here; in the data, active = GI50 up to about 1.1 µM and inactive = higher.

Assays:
Experiment in all cases: NCI tumour cell line growth inhibition, 48 h
A549 = test system: A549
ACHN = test system: ACHN
CAKI-1 = test system: CAKI-1
COLO 205 = test system: COLO 205
DU-145 = test system: DU-145
K562 = test system: K562
MCF7 = test system: MCF7
MOLT-4 = test system: MOLT-4
Malme-3M = test system: Malme-3M
OVCAR-3 = test system: OVCAR-3
PC-3 = test system: PC-3
SF-268 = test system: SF-268
SF-539 = test system: SF-539
SK-MEL-28 = test system: SK-MEL-28
SK-MEL-5 = test system: SK-MEL-5
SK-OV-3 = test system: SK-OV-3
SNB-19 = test system: SNB-19
SNB-75 = test system: SNB-75
UACC-257 = test system: UACC-257
UO-31 = test system: UO-31

Measured: GI50

CCOC(=O)C1(C(C)=O)OC(=O)c2cnccc21 (stereo not given)
inactive: A549 > 100 µM | ACHN > 100 µM | CAKI-1 > 100 µM | COLO 205 > 100 µM | DU-145 > 100 µM | K562 > 100 µM | MCF7 > 100 µM | MOLT-4 > 100 µM | Malme-3M > 100 µM | OVCAR-3 > 100 µM | PC-3 > 100 µM | SF-268 > 100 µM | SF-539 > 100 µM | SK-MEL-28 > 100 µM | SK-MEL-5 > 100 µM | SK-OV-3 > 100 µM | SNB-19 > 100 µM | SNB-75 > 100 µM | UACC-257 > 100 µM | UO-31 > 100 µM

CC12CCC(C(=O)OC1=O)C(C)(C)O2 (stereo not given)
inactive: A549 > 100 µM | ACHN > 100 µM | CAKI-1 > 100 µM | COLO 205 > 100 µM | DU-145 > 100 µM | K562 > 100 µM | MCF7 > 100 µM | MOLT-4 > 100 µM | Malme-3M > 100 µM | OVCAR-3 > 100 µM | PC-3 > 100 µM | SF-268 > 100 µM | SF-539 > 100 µM | SK-MEL-28 > 100 µM | SK-MEL-5 > 100 µM | SK-OV-3 > 100 µM | SNB-19 > 100 µM | SNB-75 > 100 µM | UACC-257 > 100 µM | UO-31 > 100 µM
